Data on 5 compounds can be found in patent US20250197359A1, “CANNABINOID RECEPTOR MODULATING COMPOUNDS” (The U.S.A., as Represented by the Secretary, Department of …, priority 2022, published 2025).

The nature of series [1]: Metabolic stability in human liver microsomes. The series is classed as in vitro ADME. The following applies: for microsomal CLint / half-life: human, liver microsomes; for half-life: read-out: t1/2, min.
The next series concerns the target T1, Brain/CB1 (Mus musculus, UniProt P47746).
T1 construct: from tissue; host or cells: mouse brain membranes
The experiment in a line: Functional GTPγS binding, Brain/CB1. The series is classed as biochemical.

Another series deals with CB1 (UniProt P21554). The experiment in a line: CB1 radioligand binding assay. On the set-up: species or system human. The following applies: read-out: Ki (CB1). The procedure, abridged: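 Radioligand binding to human CB1 stably expressed in CHO cells and to mouse brain membrane CB1 gave binding constants. For selected compounds, antagonism of CP55940-induced CB1 activation was measured in MPXNomad-CB1 HEK293 cells via cAMPNomad (cAMP) and ArresNomad (β-arrestin) fluorescent biosensors.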

Series [2] is described as follows: Metabolic stability in mouse liver microsomes. The series is classed as in vitro ADME. The following applies: for microsomal CLint / half-life: mouse, liver microsomes; for half-life: read-out: t1/2, min. On the technique in general: Liver microsomes are vesicles of endoplasmic reticulum, rich in cytochrome P450 enzymes.
Another series deals with Caco-2. Description: Caco-2 permeability (A-B and B-A). The series is classed as in vitro ADME. A general note: Caco-2 monolayers are a common model of the intestinal barrier.
For series [3], the target named is T2, Cannabinoid receptor 1 (Homo sapiens, UniProt P21554).
T2 construct: expressed in transfected cells; host or cells: MPXNomad-CB1 HEK293 cell line
T2 sequence (P21554 whole entry): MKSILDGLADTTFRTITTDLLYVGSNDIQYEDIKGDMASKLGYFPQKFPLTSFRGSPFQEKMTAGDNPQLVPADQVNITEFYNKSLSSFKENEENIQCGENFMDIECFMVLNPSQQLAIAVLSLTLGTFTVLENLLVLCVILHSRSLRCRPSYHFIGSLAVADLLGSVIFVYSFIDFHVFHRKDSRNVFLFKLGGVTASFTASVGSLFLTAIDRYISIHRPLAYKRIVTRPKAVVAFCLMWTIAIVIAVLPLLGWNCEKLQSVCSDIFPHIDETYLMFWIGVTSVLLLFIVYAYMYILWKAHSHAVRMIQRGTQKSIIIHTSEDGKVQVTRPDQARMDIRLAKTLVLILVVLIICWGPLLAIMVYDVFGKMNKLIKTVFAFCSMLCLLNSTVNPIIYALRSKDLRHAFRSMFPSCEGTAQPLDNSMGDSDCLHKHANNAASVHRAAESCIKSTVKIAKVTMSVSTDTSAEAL
The experiment in a line: cAMP signaling, red cAMPNomad biosensor, MPXNomad-CB1 HEK293 cell line, antagonism of CP55940. The following applies: for reduction in the fluorescence intensity, cAMP assay: CP55940 3 μM. The series is classed as cell-based. As for the experimental part: (§1) A number of these amino carboxamido adducts with a variety of side chains have been synthesized. This led to interesting CB1R binding affinities of the synthesized molecules. Several of these racemic (glycine, valine) or diastereomeric molecules have binding affinities in single digit nanomolar range (2 nM to 10 nM) obtained from radioligand binding assay. Furthermore, we investigated the antagonist effect of a few compounds to analyze their capability to modulate CBIR induced by CP55940 in the MPXNomad-CB1 HEK293 cell line. This cell line has been validated measuring cAMP signaling and ß-Arrestin mobilization analyzing the fluorescence intensity of the red cAMPNomad and the green ArresNomad biosensors.
(§2) The MPXNomad-CB1 cell line was used to test substances or examine their ability to interact with Cannabinoid receptor 1 where an agonist that binds to CB1 activates a G protein, which in turn causes CAMP to be released and a cellular response that is then internalized by ß-Arrestin. The assay determined the efficacy to block the activation of the CB1 receptor brought on by CP55940 in the MPXNomad-CB1 HEK293 cell line. AM251 1 μM and 3 µM was utilized as the positive control, CP55940 3 μM was used as the negative control, and vehicle (DMSO) served as the zero control. Treatment with CP55940 3 μM produced an increment in the fluorescence intensity of the red cAMPNomad and the green ArresNomad biosensors. […] Instead, the reduction was a 50%, 34% and 22% at 1 μM, 100 nM and 10 nM, respectively in the arrestin assay.
Background: Cyclic AMP is a second messenger, typically raised through Gs and lowered through Gi signalling.

The target of series [4] is T2, Cannabinoid receptor 1. Description: β-Arrestin mobilization, green ArresNomad biosensor, MPXNomad-CB1 HEK293 cell line, antagonism of CP55940. The conditions noted are these: for reduction in the fluorescence intensity, arrestin assay: CP55940 3 μM. The series is classed as cell-based. As for the experimental part: as §1, §2
A further series concerns the target iNOS (Mus musculus, UniProt P29477). Description: Inducible NOS biochemical assay. An excerpt: Biochemical assay results are presented as the percent inhibition of specific binding or activity (iNOS, CAMP, beta arrestin).
Series [5] is described as follows: Caco-2 permeability (A-B and B-A). The following applies: human; for efflux ratio: Caco-2, quotient of Papp(BA) to Papp(AB). The series is classed as in vitro ADME.
[6] abbreviates: vs CP55940, MPXNomad-CB1 HEK293.
Setting [7] is: Caco-2, mean, read-out: Papp (AB), 10^−6 cm/s, Mean.
Setting [8] is: Caco-2, mean, read-out: Papp (BA), 10^−6 cm/s, Mean.
The mark [9] stands for this setting: Caco-2, replicate 1, read-out: Papp (AB), 10^−6 cm/s, 1.
Setting [10] is: Caco-2, replicate 1, read-out: Papp (BA), 10^−6 cm/s, 1.
Setting [11] is: Caco-2, replicate 2, read-out: Papp (AB), 10^−6 cm/s, 2.
[12] abbreviates: Caco-2, replicate 2, read-out: Papp (BA), 10^−6 cm/s, 2.

Read-outs that look alike come from different tables or passages of the source.

T1 sequence (P47746 whole entry): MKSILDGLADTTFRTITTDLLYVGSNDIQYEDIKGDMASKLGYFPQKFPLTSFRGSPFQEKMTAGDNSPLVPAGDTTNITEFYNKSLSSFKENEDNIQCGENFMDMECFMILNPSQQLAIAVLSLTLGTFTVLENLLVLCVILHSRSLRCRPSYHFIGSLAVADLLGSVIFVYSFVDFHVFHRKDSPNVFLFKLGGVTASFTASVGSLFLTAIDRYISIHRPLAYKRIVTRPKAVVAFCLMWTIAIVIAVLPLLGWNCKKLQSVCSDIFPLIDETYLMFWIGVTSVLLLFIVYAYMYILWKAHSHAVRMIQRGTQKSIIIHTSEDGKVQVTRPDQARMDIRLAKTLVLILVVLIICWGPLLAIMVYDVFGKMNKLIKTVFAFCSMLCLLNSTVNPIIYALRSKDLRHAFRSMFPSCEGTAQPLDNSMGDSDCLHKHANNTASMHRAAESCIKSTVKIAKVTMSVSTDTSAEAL

The term microsomal CLint denotes a measure of how fast metabolising enzymes remove a compound, apart from limits set by blood flow. One may read the IC50 as the concentration at which inhibition is half-maximal. A high value points to lower potency. Broadly, the Ki is a measure of affinity in units of concentration, obtained from inhibition or displacement. The term efflux ratio denotes a quotient of directional permeabilities that is used to spot active efflux. For `CC(C)C(N/C(=N/S(=O)(=O)c1ccc(C(F)(F)F)cc1)N1CCC(c2ccccc2)C(c2ccc(Cl)cc2)=N1)C(N)=O` (single isomer, unassigned) [Compound 29a, (Z)-2-(3-(4-chlorophenyl)-4-phenyl-N′-((4-(trifluoromethyl)phenyl)sulfonyl)-1,4,5,6-tetrahydropyridazine-1-carboximidamido)-3-methylbutanamide], in series [1], the microsomal CLint came out at 23 µL/min/mg and the half-life is 1.22 h. Moreover, the IC50 on Brain/CB1 worked out at 389 nM. The Ki at CB1 was found to be 13.2 nM. For the same compound, in series [2], the “Clint” value came out at 236 µL/min/mg and the “t1/2, min” value is 0.118 h. For the same compound, in the series with Caco-2 (mean), the “Papp (AB), 10^−6 cm/s, Mean” value was 1.4 10^−6 cm/s and the “Papp (BA), 10^−6 cm/s, Mean” value is recorded as 0.5 10^−6 cm/s. Moreover, the efflux ratio in the series with Caco-2 (quotient of Papp(BA) to Papp(AB)) stood at 0.4. Moreover, in the series on Caco-2 (replicate 1), the “Papp (AB), 10^−6 cm/s, 1” value is recorded as 1.4 10^−6 cm/s and the “Papp (BA), 10^−6 cm/s, 1” value is listed as 0.5 10^−6 cm/s. In the series with Caco-2 (replicate 2), the “Papp (AB), 10^−6 cm/s, 2” value was 1.4 10^−6 cm/s and the “Papp (BA), 10^−6 cm/s, 2” value is recorded as 0.5 10^−6 cm/s.

For `CC(C)C(N/C(=N/S(=O)(=O)c1ccc(C(F)(F)F)cc1)N1CCC(c2ccccc2)C(c2ccc(Cl)cc2)=N1)C(N)=O` (stereo not drawn) [2-(3-(4-chlorophenyl)-4-phenyl-N′-((4-(trifluoromethyl)phenyl)sulfonyl)-1,4,5,6-tetrahydropyridazine-1-carboximidamido)-3-methylbutanamide], the IC50 at Cannabinoid receptor 1 [3] (setting [6]) was 0.804 nM; on Cannabinoid receptor 1 [4] (setting [6]) it was 0.227 nM.

For the compound `C/C(N)=N\C(=N\S(=O)(=O)c1ccc(C(F)(F)F)cc1)N1CCC(c2ccccc2)C(c2ccc(Cl)cc2)=N1` (stereo not drawn) [Compound 10b, (Z)—N—((E)-1-aminoethylidene)-3-(4-chlorophenyl)-4-phenyl-N′-((4-(trifluoromethyl)phenyl)sulfonyl)-5,6-dihydropyridazine-1 (4H)-carboximidamide], the microsomal CLint in [1] came out at 2 µL/min/mg; in series [2], 34 µL/min/mg. Besides, the half-life in [1] stood at 12.7 h; in series [2] it was 0.813 h. The IC50 on Brain/CB1 was 93 nM. At CB1, the inhibition constant (Ki) stood at 15 nM. The “iNOS inhibition % Response” value on iNOS is given as 64%. Moreover, the “reduction in the fluorescence intensity, cAMP assay” value on Cannabinoid receptor 1 [3] (10 nM) was about 19%; at Cannabinoid receptor 1 [3] (100 nM) it was about 29%; at Cannabinoid receptor 1 [3] (1 μM), about 47%. The Papp A→B is 2.5 ×10⁻⁶ cm/s in series [5] (setting [7]), 2.4 ×10⁻⁶ cm/s in series [5] (setting [9]) and 2.5 ×10⁻⁶ cm/s in series [5] (setting [11]). The Papp B→A is 1.9 ×10⁻⁶ cm/s in series [5] (setting [8]), 1.9 ×10⁻⁶ cm/s in series [5] (setting [10]) and 1.8 ×10⁻⁶ cm/s in series [5] (setting [12]). In addition, in series [5], the efflux ratio stood at 0.8. Further, the “reduction in the fluorescence intensity, arrestin assay” value was found to be 22% at Cannabinoid receptor 1 [4] (10 nM), 34% at Cannabinoid receptor 1 [4] (100 nM) and 50% at Cannabinoid receptor 1 [4] (1 μM).

Take `CC(C)(C)/C(N)=N/C(=N/S(=O)(=O)c1ccc(C(F)(F)F)cc1)N1CCC(c2ccccc2)C(c2ccc(Cl)cc2)=N1` (stereo not drawn) [Compound 10o, (Z)—N—((Z)-1-amino-2,2-dimethylpropylidene)-3-(4-chlorophenyl)-4-phenyl-N′-((4-(trifluoromethyl)phenyl)sulfonyl)-5,6-dihydropyridazine-1 (4H)-carboximidamide]: the “t1/2, min” value came out at 1.07 h in series [1] and 1.23 h in [2]. The microsomal CLint in series [1] turned out to be 26 µL/min/mg; in [2], 23 µL/min/mg. For the same compound, the values for the half-life in [1] and in [2] were 1.07 h and 1.13 h, respectively. The compound further displayed an IC50 on Brain/CB1 of 18 nM. The Ki on CB1 stood at 10 nM. At iNOS, the “iNOS inhibition % Response” value was determined as 66%. Besides, the Papp A→B in series [5] (setting [7]) amounted to 2.2 ×10⁻⁶ cm/s; in [5] (setting [9]), 1.9 ×10⁻⁶ cm/s; in series [5] (setting [11]) it was 2.4 ×10⁻⁶ cm/s. The Papp B→A in series [5] (setting [8]), in [5] (setting [10]) and in series [5] (setting [12]) was 0.5 ×10⁻⁶ cm/s in each case. Also, the efflux ratio in [5] came out at 0.2.

Regarding `N/C(=N\C(=N\S(=O)(=O)c1ccc(C(F)(F)F)cc1)N1CCC(c2ccccc2)C(c2ccc(Cl)cc2)=N1)c1ccc(F)cc1F` (stereo not drawn) [Compound 10p, (Z)—N—((Z)-amino (2,4-difluorophenyl)methylene)-3-(4-chlorophenyl)-4-phenyl-N′-((4-(trifluoromethyl)phenyl)sulfonyl)-5,6-dihydropyridazine-1 (4H)-carboximidamide], the microsomal CLint in [1] amounted to 6 µL/min/mg; in [2] it was 25 µL/min/mg. For the same compound, the figures for the half-life in series [1] and in [2] were 4.8 h and 1.3 h, respectively. In addition, on Brain/CB1, the IC50 was determined as 13 nM. Also, the Ki on CB1 turned out to be 9.6 nM. The “iNOS inhibition % Response” value at iNOS was found to be 36%. Besides, in series [2], the “t1/2, min” value was found to be 1.13 h. Moreover, the Papp A→B in series [5] (setting [7]) came to 1.4 ×10⁻⁶ cm/s; in series [5] (setting [9]), 1.5 ×10⁻⁶ cm/s; in [5] (setting [11]), 1.3 ×10⁻⁶ cm/s. The figures for the Papp B→A in series [5] (setting [8]), in series [5] (setting [10]) and in series [5] (setting [12]) were 0.6 ×10⁻⁶ cm/s, 0.6 ×10⁻⁶ cm/s and 0.5 ×10⁻⁶ cm/s, respectively. The efflux ratio in series [5] was found to be 0.4.
